Data from PubChem BioAssay (NCI).
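Exposure lasted 48 hours, with cells grown in 96-well plates and compounds tested at five concentrations. TGI is the concentration that stops growth completely.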

Columns and labels:
Assay in all cases: inhibition of tumour cell growth, NCI panel, 48 h
HS 578T breast = system: HS 578T breast
NCI-H522 lung = system: NCI-H522 lung
OVCAR-8 ovarian = system: OVCAR-8 ovarian
M14 melanoma = system: M14 melanoma
DU-145 prostate = system: DU-145 prostate
RXF 393 renal = system: RXF 393 renal
UACC-257 melanoma = system: UACC-257 melanoma
MDA-MB-435 = system: MDA-MB-435
IGROV1 ovarian = system: IGROV1 ovarian
HL-60(TB) leukemia = system: HL-60(TB) leukemia
NCI-H226 lung = system: NCI-H226 lung
RPMI-8226 leukemia = system: RPMI-8226 leukemia
BT-549 breast = system: BT-549 breast
NCI/ADR-RES ovarian = system: NCI/ADR-RES ovarian
KM12 colon = system: KM12 colon
CAKI-1 renal = system: CAKI-1 renal
HCC-2998 colon = system: HCC-2998 colon
HT29 colon = system: HT29 colon
ACHN renal = system: ACHN renal
SNB-75 CNS = system: SNB-75 CNS
MDA-N = system: MDA-N
NCI-H23 lung = system: NCI-H23 lung
TK-10 renal = system: TK-10 renal
UO-31 renal = system: UO-31 renal
786-0 renal = system: 786-0 renal
U251 CNS = system: U251 CNS
UACC-62 melanoma = system: UACC-62 melanoma
HCT-15 colon = system: HCT-15 colon
OVCAR-5 ovarian = system: OVCAR-5 ovarian
SK-MEL-5 melanoma = system: SK-MEL-5 melanoma
MOLT-4 leukemia = system: MOLT-4 leukemia
SNB-19 CNS = system: SNB-19 CNS
SN12C renal = system: SN12C renal
NCI-H460 lung = system: NCI-H460 lung
HCT-116 colon = system: HCT-116 colon
MALME-3M melanoma = system: MALME-3M melanoma
PC-3 prostate = system: PC-3 prostate
K-562 leukemia = system: K-562 leukemia
A498 renal = system: A498 renal
COLO 205 colon = system: COLO 205 colon
HOP-62 NSCLC = system: HOP-62 NSCLC
SW-620 colon = system: SW-620 colon
EKVX NSCLC = system: EKVX NSCLC
LOX IMVI melanoma = system: LOX IMVI melanoma
SF-268 CNS = system: SF-268 CNS
SF-295 CNS = system: SF-295 CNS
A549 NSCLC = system: A549 NSCLC
HOP-92 NSCLC = system: HOP-92 NSCLC
SK-MEL-2 melanoma = system: SK-MEL-2 melanoma
CCRF-CEM leukemia = system: CCRF-CEM leukemia
OVCAR-3 ovarian = system: OVCAR-3 ovarian
MCF7 breast = system: MCF7 breast
MDA-MB-231 breast = system: MDA-MB-231 breast
OVCAR-4 ovarian = system: OVCAR-4 ovarian
SK-MEL-28 melanoma = system: SK-MEL-28 melanoma
T-47D breast = system: T-47D breast
SK-OV-3 ovarian = system: SK-OV-3 ovarian
SF-539 CNS = system: SF-539 CNS
SR leukemia = system: SR leukemia
DMS 273 small cell lung = system: DMS 273 small cell lung
M19-MEL melanoma = system: M19-MEL melanoma
DMS 114 small cell lung = system: DMS 114 small cell lung
DLD-1 colon = system: DLD-1 colon
SNB-78 CNS = system: SNB-78 CNS
LXFL 529 NSCLC = system: LXFL 529 NSCLC
HOP-18 NSCLC = system: HOP-18 NSCLC
KM20L2 colon = system: KM20L2 colon
XF 498 CNS = system: XF 498 CNS

Measured: TGI

CC[C@H](CCCC[C@H]1CC[C@@H]2CC(=O)C[C@H]12)OC
93 µM: SK-MEL-5 melanoma
55.2 µM: K-562 leukemia
67.8 µM: HL-60(TB) leukemia
not listed: DMS 273 small cell lung | M19-MEL melanoma | DMS 114 small cell lung | DLD-1 colon | SNB-78 CNS | LXFL 529 NSCLC | HOP-18 NSCLC | KM20L2 colon | XF 498 CNS
> 100 µM: all other assays above

CCOC(=O)c1nn2c(nc1=O)sc1ccc3ccccc3c12
not listed: HS 578T breast | NCI-H522 lung | DU-145 prostate | MDA-MB-435 | BT-549 breast | NCI/ADR-RES ovarian | MDA-N | PC-3 prostate | A498 renal | MCF7 breast | MDA-MB-231 breast | T-47D breast | XF 498 CNS
> 100 µM: all other assays above

O=C(O)CCCSC(=O)Nc1ccc(N=Nc2ccccc2)cc1
not listed: HS 578T breast | DU-145 prostate | MDA-MB-435 | IGROV1 ovarian | HL-60(TB) leukemia | BT-549 breast | NCI/ADR-RES ovarian | SNB-75 CNS | MDA-N | SK-MEL-5 melanoma | MALME-3M melanoma | PC-3 prostate | HOP-92 NSCLC | MCF7 breast | MDA-MB-231 breast | T-47D breast | SK-OV-3 ovarian | M19-MEL melanoma | DLD-1 colon | HOP-18 NSCLC | XF 498 CNS
> 100 µM: all other assays above

O=C(O)CCC(=O)N1c2ccccc2CC1c1c[nH]c2ccccc12 (configuration not stated)
not listed: HS 578T breast | DU-145 prostate | MDA-MB-435 | BT-549 breast | NCI/ADR-RES ovarian | MDA-N | PC-3 prostate | MCF7 breast | MDA-MB-231 breast | T-47D breast | SR leukemia | DLD-1 colon
> 100 µM: all other assays above
